Results reported in US8975406B2, “Compound useful for the treatment of degenerative and inflammatory diseases” (Galapagos N.V., priority 2011, dated 2015).

What was measured:
[1] = system: rat CIA model; experiment: Rat collagen induced arthritis (CIA) model; type: in vivo; conditions: dose of 0.1 mg/kg
Experimental: Completed Freund's adjuvant (CFA) and incomplete Freund's adjuvant (IFA) were purchased from Difco. Bovine collagen type II (CII), lipopolysaccharide (LPS), and Enbrel was obtained from Chondrex (Isle d'Abeau, France); Sigma (P4252, L′Isle d'Abeau, France), Whyett (25 mg injectable syringe, France) Acros Organics (Palo Alto, Calif.), respectively. All other reagents used were of reagent grade and all solvents were of analytical grade.
Dark Agouti rats (male, 7-8 weeks old) were obtained from Harlan Laboratories (Maison-Alfort, France). Rats were kept on a 12 hr light/dark cycle (0700-1900). Temperature was maintained at 22° C., and food and water were provided ad libitum.
One day before the experiment, CII solution (2 mg/mL) is prepared with 0.05 M acetic acid and stored at 4° C. Just before the immunization, equal volumes of adjuvant (IFA) and CII are mixed by a homogenizer in a pre-cooled glass bottle in an ice water bath. […]
Arthritis is scored according to the method of Khachigian 2006, Lin et al 2007 and Nishida et al. 2004). […]
The area under the curve (AUC) from day 1 to day 14 is calculated for each individual rat. The AUC of each animal is divided by the average AUC obtained for the vehicle in the study from which the data on that animal is obtained and multiplied by 100 (i.e. the AUC was expressed as a percentage of the average vehicle AUC per study). […]

[2] = target: T1, TYK2 (Homo sapiens, UniProt P29597); experiment: TYK2 Ki determination assay; type: biochemical; conditions: Lineweaver-Burk plot, polyGT substrate, varying ATP
T1 construct: catalytic domain (amino acids 871-1187; catalog number 08-147); GST; purchased Carna Biosciences 08-147
T1 sequence (P29597 871-1187): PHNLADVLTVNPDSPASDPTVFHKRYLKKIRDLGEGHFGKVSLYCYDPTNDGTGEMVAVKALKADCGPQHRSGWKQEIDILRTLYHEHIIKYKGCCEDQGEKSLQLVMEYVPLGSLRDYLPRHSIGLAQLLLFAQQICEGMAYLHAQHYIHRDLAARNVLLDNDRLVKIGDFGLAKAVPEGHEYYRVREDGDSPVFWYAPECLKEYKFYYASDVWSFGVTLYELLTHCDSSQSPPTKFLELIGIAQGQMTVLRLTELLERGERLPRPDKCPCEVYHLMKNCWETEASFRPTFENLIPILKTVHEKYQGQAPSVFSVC
Experimental: For the determination of Ki, different amounts of compound are mixed with the enzyme and the enzymatic reaction is followed as a function of ATP concentration. The Ki is determined by means of double reciprocal plotting of Km vs compound concentration (Lineweaver-Burk plot). TYK2 (Carna Biosciences, 08-147) was used at a final concentration of 160 ng/ml. The substrate was Poly(Glu,Tyr)sodium salt (4:1), MW 20 000-50 000 (Sigma, P0275) The reaction was performed in 25 mM Hepes pH 7.2, 50 mM NaCl, 0.5 mM EDTA, 1 mM DTT, 5 mM MnCl2, 10 mM MgCl2, 0.1% Brij-35 with varying concentrations of ATP and compound and stopped by addition of 150 mM phosphoric acid. Measurement of incorporated phosphate into the substrate polyGT was done by loading the samples on a filter plate (using a harvester, Perkin Elmer) and subsequent washing. Incorporated ^33P in polyGT is measured in a Topcount scintillation counter after addition of scintillation liquid to the filter plates (Perkin Elmer).

**Q.** With `CC(=O)Nc1cc2c(-c3ccc(CN4CCN(S(C)(=O)=O)CC4)c(F)c3)cccn2n1` [Compound 21] as the molecule, how does the “normalized clinical score values (calculated as AUC or as the difference from day 1 to day 14)” value [1] read?
**A.** Its value is “statistically significant improvements”.

**Q.** What about the Ki [2] of the same molecule?
**A.** The Ki was 135 nM.
